PMC7529893, “Structural basis for substrate recognition and chemical inhibition of oncogenic MAGE ubiquitin ligases” (Nature Communications, 2020)

Target: T1, MAGE-A11:PCF11 interaction (GST-MAGE-A11 MHD and FAM-PCF11_4) (Homo sapiens, UniProt P43364)
T1 construct: GST-MAGE-A11 MHD (human MAGE-A11 MHD amino acid 218-429); made in house; host or cells: E. coli BL21(DE3)
T1 sequence (P43364 218-429): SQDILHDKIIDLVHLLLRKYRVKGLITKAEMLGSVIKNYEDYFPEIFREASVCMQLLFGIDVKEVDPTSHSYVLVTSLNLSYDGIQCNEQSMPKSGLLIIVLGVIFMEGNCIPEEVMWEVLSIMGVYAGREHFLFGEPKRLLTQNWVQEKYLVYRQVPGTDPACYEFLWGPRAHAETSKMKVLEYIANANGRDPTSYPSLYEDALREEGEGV
Experiment: TR-FRET dose response test of compounds for disruption of MAGE-A11:PCF11 binding
Settings: Fig. 5c, 5f, Supplementary Fig. 4e legend; read-out: IC50, TR-FRET competition, disruption of MAGE-A11:PCF11 binding
Procedure, shortened: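 Competition of compounds against binding of FAM-PCF11_4 peptide to GST-MAGE-A11 MHD, detected with Tb-anti-GST, in 50 mM Tris pH 7.5, 20 mM MgCl2, 0.1 mg/ml BSA, 1 mM DTT. 90 min at ~25 °C; 520/490 nm emission ratio (340 nm excitation) fitted for IC50.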

| SMILES | IC50 [nM] |
| --- | --- |
| FC(F)(F)c1ccc2c(NCCCNCc3ccc4[nH]ccc4c3)ccnc2c1 [SJ000521054-02] | 400 |
| c1ccc2c(NCCCNCc3ccc4[nH]ccc4c3)ccnc2c1 [SJ001008066-01] | 130 |
